Data set [1] has as its system early breast cancer in postmenopausal women. To be noted: 9366 patients; cited from earlier work.
Data set [2] relates to musculoskeletal pain in premenopausal breast cancer patients. In words: Example 3: placebo-controlled cross-over study, premenopausal breast cancer patients on estrogen suppressant therapy. To be noted: premenopausal patients with ovarian ablation, estetrol plus estrogen suppressant. The data set is classed as in vivo, human patients.
The test system of data set [3] is musculoskeletal pain in postmenopausal breast cancer patients. In words: Example 2: placebo-controlled cross-over study, postmenopausal breast cancer patients (stage I or II) on estrogen suppressant therapy. The data set is classed as in vivo, human patients. To be noted: for average musculoskeletal pain sensation value during treatment weeks, vs placebo: 4 mg/day oral estetrol, 6 weeks.
Excerpt: 20 postmenopausal patients are recruited that have breast cancer in clinical staging I or II, are adequately being treated surgically, chemotherapeutically and/or radiotherapeutically, show estrogen receptor positive tumour histology and do no have contraindications for steroid therapy, are on treatment with either an anti-estrogen or an aromatase inhibitor for at least three months and suffer from musculoskeletal pain complaints (defined as skeletal pain, pain in the legs, arms or back). Furthermore, during the screening phase other diagnoses, such as rheumatoid arthritis and/or other skeletal diseases or joint diseases, are excluded.
(§1) The patients participate in a clinical study with a duration of 15 weeks and are randomized as follows:
(§2) Patients continue with the anti-estrogen treatment that they have been receiving previously during the entire period of the study and receive additional daily oral treatment with 4 mg estetrol or a placebo for six weeks. 5 patients start with 4 mg/day oral estetrol treatment and 5 patients with placebo treatment. After a wash-out period of 3 weeks, during which anti-estrogen treatment continues and no additional estetrol or placebo treatment is given, study treatment is reinitiated. Placebo-receiving patients are subsequently treated with 4 mg/day oral estetrol and estetrol-receiving patients with placebo for 6 weeks after which the study is terminated.
as §2, with “aromatase inhibitor” for “anti-estrogen”
The subjects visit the study center once weekly, during which the patients are closely monitored by their study physician. During all visits, thorough physical examinations are performed, blood samples are retrieved and a questionnaire, specifically addressing musculoskeletal pain sensation on a graded scale and climacteric complaints, is completed. Primary endpoints in the study are improvement of the musculoskeletal pain and reduction of climacteric complaints, whereas secondary endpoints are clinical tumour progression and changes of tumour markers.

Data set [4] concerns bone resorption, hot flushing and vaginal cornification. In words: agonistic models of in vivo estrogenicity (previous studies). To be noted: data from previous studies. Here is the method: The doses of EE and E4 were based on data from previous studies, showing equipotency of 0.025 mg/kg/day EE and 0.5 mg/kg/day E4 in agonistic models of preventing bone resorption, prevention of hot flushing and vaginal comification.

Data set [5] relates to tumour gene expression profile and musculoskeletal pain in postmenopausal breast cancer patients. Kind of data set: Example 4: placebo-controlled cross-over study with fine needle aspiration, postmenopausal breast cancer patients (at least stage III). The format is in vivo, human patients. The conditions noted are these: for average musculoskeletal pain sensation value during treatment weeks, vs placebo: 6 weeks.
Excerpt: 20 postmenopausal patients are recruited that have breast cancer in at least clinical staging […], have a palpable macroscopic tumour mass, show estrogen receptor positive tumour histology, have already been treated with either an anti-estrogen or an aromatase inhibitor for at least three months, do no have contraindications for steroid therapy and suffer from musculoskeletal pain complaints (defined as skeletal pain, pain in the legs, arms or back). Furthermore, during the screening phase other diagnoses, such as rheumatoid arthritis and/or other skeletal diseases or joint diseases, are excluded.
as §1
as §2, with “treatment” for “treatment that”
as §2, with “aromatase inhibitor” for “anti-estrogen”, “treatment” for “treatment that”
The patients visit the study center once weekly, during which the patients are closely monitored by their study physician. During all visits, thorough physical examinations are performed, blood samples are retrieved and a questionnaire, specifically addressing musculoskeletal pain sensation on a graded scale, is completed. Furthermore, three fine needle aspirations (FNA) from the macroscopic tumour are obtained at baseline, during the wash-out and at the last visit after study week 15, respectively. Additionally at the same time points and for all locations with macroscopic palpable tumour activity, tumour sizes are scored. Tumour gene expression profiles are determined by using a FNA-cDNA microarray as described by Sotiriou et al. (Breast Cancer Research 2002,4:R3). Primary endpoints in the study are changes of the gene expression profile, improvement of the musculoskeletal pain and reduction of climacteric complaints, whereas secondary endpoints are clinical tumour progression and changes of tumour markers.

The subject of data set [6] is DMBA-induced mammary tumours. In words: 7,12-dimethyl-benz(a)anthracene (DMBA)-induced tumour model in rats. The format is in vivo, Sprague-Dawley rats. The protocol: In order to assess the effect of the present estrogenic substances on tumours, estetrol was tested in the 7,12-dimethyl-benz(a)anthracene (DMBA)-induced tumour model in rats. This model, originally developed by Huggins et al.,1961 (Nature,19, 204-207), has been widely used and is a generally accepted model with predictive value for anti-tumour agents in humans. The growth of the DMBA-induced tumours is dependent on endogenously produced estradiol or exogenously administered estrogens and prolactin (Sylvester et al., 1982, Cancer Research, 42, 4943-4947).
Eighty-four female Sprague-Dawley rats (Harlan, The Netherlands) were group housed, maintained in a 12-hr light/dark environment, and fed a Soya Free Diet (SDS England) and water ad libitum. Animals were weighed on a weekly basis. One week prior to induction of mammary carcinoma, 12 animals (aged 43 days) were surgically castrated via removal of the ovaries. At the age of 50 days, all animals were administered a single oral dose of 16 mg DMBA to induce tumour development. Animals were subsequently allocated to one of seven groups (n=12), receiving placebo or treatment as follows:. • Group 1 animals received placebo oral treatment with 3.0 ml/kg/day vehicle (20% wt/vol solution of hydroxypropyl-beta-cyclodextrin in water); • Group 2 surgically castrated animals received placebo treatment with 3.0 ml/kg/day vehicle; • Group 3 animals received the anti-estrogen tamoxifen given orally at a single daily dose of 3 mg/kg; • Group 4 animals received ethinylestradiol (EE) orally at a single daily dose of 0.025 mg/kg; • Group S animals received ethinylestradiol (EE) orally at a single daily dose of 0.125 mg/kg; • Group 6 animals received estetrol (E4) orally at a single daily dose of 0.5 mg/kg; and • Group 7 animals received estetrol (E4) orally at a single daily dose of 2.5 mg/kg.
During the treatment period of 8 weeks, the emergence of palpable tumours and number of tumours were determined weekly. At 8 weeks, at necropsy, final measurements were taken. The number of tumours at necropsy are depicted in FIG. 1.

Data set [7] concerns DMBA-induced mammary tumours. The conditions noted are these: literature (Hollingsworth et al., 1998); cited from earlier work.
Setting [8] is: 4 mg/day oral estetrol added to estrogen suppressant therapy.

Here are results for three compounds from US20060276414A1, “Use of compositions comprising an estrogenic component for the treatment and prevention of musculoskeletal pain” (priority 2003, published 2006).

As to `CC(C)(C#N)c1cc(Cn2cncn2)cc(C(C)(C)C#N)c1` [anastrozole], the “disease-free survival and incidence of contralateral breast cancer, compared with tamoxifen” value in data set [1] is reported as “significantly superior”.
For `C[C@]12CC[C@@H]3c4ccc(O)cc4CC[C@H]3[C@@H]1[C@@H](O)[C@@H](O)[C@@H]2O` [estetrol, 1,3,5 (10)-estratrien-3,15α,16α,17β-tetrol], the “clinical outcome (musculoskeletal pain) compared with postmenopausal patients” value in data set [2] was “similar-to the clinical outcome reported for postmenopausal breast cancer patients”. The “climacteric complaints (questionnaires)” value in data set [3] (setting [8]) and in data set [5] (setting [8]) was “overall reduction” each time. Besides, the “average musculoskeletal pain sensation value during treatment weeks, vs placebo” value in data set [3] (concomitant anti-estrogen therapy) is recorded as “significantly lower”; in data set [3] (concomitant aromatase inhibitor therapy), “significantly lower”; in data set [5] (4 mg/day oral estetrol, concomitant anti-estrogen therapy) it was “significantly lower”; in data set [5] (4 mg/day oral estetrol, concomitant aromatase inhibitor therapy) it was “significantly lower”. For the same compound, in data set [3] (during treatment with estetrol, vs baseline and recurrency data for stages I and II), the “clinical tumour progression and tumour markers” value is listed as “do not show significant adverse changes”. Besides, the “equipotency with EE in preventing bone resorption, prevention of hot flushing and vaginal cornification” value in data set [4] (0.5 mg/kg/day E4 vs 0.025 mg/kg/day EE) is “equipotency”. For the same compound, the “equipotency with EE in in vivo estrogenicity (preventing bone resorption, hot flushing, vaginal cornification)” value in data set [4] (2.5 mg/kg/day E4 vs 0.125 mg/kg/day EE) was “equipotency”. The “molecular profile on concomitant administration with an anti-estrogen or an aromatase inhibitor” value in data set [5] (4 mg/day oral estetrol plus anti-estrogen or aromatase inhibitor) is given as “synergistically produces a more beneficial molecular profile”. In addition, the “changes in the gene-expression profile involved in regulation and deregulation of breast tissue proliferation” value in data set [5] (4 mg/day oral estetrol, FNA-cDNA microarray) is “favourable association”. The “tumour progression / sizes of macroscopic tumours” value in data set [5] (additional estetrol treatment, vs baseline and progression data for stages III and more) is “tumours progress more slowly or sizes of macroscopically tumours decline”. Besides, the “preventing growth of DMBA-induced tumours, compared with tamoxifen” value in data set [6] (E4 2.5 mg/kg/day orally vs tamoxifen 3 mg/kg/day orally) is “as effective as tamoxifen”. For the same compound, the “mammary tumour development (number of tumours at necropsy)” value in data set [6] (E4 2.5 mg/kg/day orally, 8 weeks, DMBA-treated female rats) is “markedly suppressed mammary tumour development”.
For the compound `CC/C(=C(\c1ccccc1)c1ccc(OCCN(C)C)cc1)c1ccccc1` [tamoxifen, reference compound], in data set [7], the “anti-tumour treatment in the DMBA model” value is “effective anti-tumour treatments”. In data set [6] (tamoxifen 3 mg/kg/day orally, 8 weeks, DMBA-treated female rats), the “development of mammary tumours (number of tumours at necropsy)” value is reported as “inhibiting the development of mammary tumours”.
